In US20150224164A1, “TREATMENT OF AUTISM SPECTRUM DISORDERS USING GLYCYL-L-2-METHYLPROLYL-L-GLUMATIC ACID” (Neuren Pharmaceuticals Limited, priority 2013, published 2015):
Where a SMILES comes first, the peptide text is derived from it.

Tests used:
fmr1 knockout mice [1] = assay: Social behavior, bouts of sniffing, fmr1 knockout mice; assay type: in vivo, mouse; details: 100 mg/kg i.p. 28-day
Experimental: G-2-MePE was administered at the dose of 100 mg/kg i.p. in 0.1 ml saline, once daily for 28 days. Vehicle-treated animals were injected with 0.1 ml saline daily for 28 days. Thereafter, drug or vehicle treatments were stopped and animals were tested on successive days until all tests were completed. Finally, the animals were sacrificed for determining expression of pAkt and pERK Mice are a social species, which engage in easily scored social behaviors including approaching, following, sniffing, allogrooming, aggressive encounters, sexual interactions, parental behaviors, nesting and sleeping in a group huddle. In the present studies, social recognition and social memory in mice were evaluated by assessing the amount of time spent sniffing a novel mouse upon repeated exposures, to induce familiarity, and reinstatement of high levels of sniffing when a novel stimulus animal is introduced.

[2] = tested on: neurons in the CA3 region of the hippocampus; assay: Neuron soma size in hippocampus CA3 (Example 10); assay type: in vivo, mouse
Experimental: We also measure the effect of G-2-MePE treatment on neuron soma size in the hippocampus. Mice are treated with G-2-MePE as described above for locomotor activity.

fmr1 knockout mice [3] = assay: Contextual fear conditioning, fmr1 knockout mice; assay type: in vivo, mouse; details: fmr1 KO; 100 mg/kg i.p. 28 days
Experimental: (§1) G-2-MePE was administered at the dose of 100 mg/kg i.p. in 0.1 ml saline, once daily for 28 days. Vehicle-treated animals were injected with 0.1 ml saline daily for 28 days. Thereafter, drug or vehicle treatments were stopped and animals were tested on successive days until all tests were completed. Finally, the animals were sacrificed for determining expression of pAkt and pERK
Contextual fear conditioning is the most basic of the conditioning (learning) procedures. It involves placing the animal in a novel environment (dark chamber), providing an aversive stimulus (a 1-sec electric shock at 0.2 mA to the paw), and then removing it. […] Freezing is a species-specific response to fear and is defined as absence of movement except for respiration.
The clinical manifestation of Fragile X Syndrome is mental retardation in which learning and memory may be profoundly impaired. We tested G-2-MePE and vehicle treated fmr1 KO and wild-type animals in a fear-conditioning task in which we measured freezing behavior in response to context. […] Before the test, we observed the mice for their reactions to a 1-sec foot shock at 0.2 mA, and we noted vocalizations, jumping behavior, and excessive running in both genotypes as evidence that they had detected the stimulus.

MeCP2 deficient mice [4] = assay: Survival after oral administration (Example 11); assay type: in vivo, mouse; details: 20 or 80 mg/kg daily
Experimental: Therefore, we administer G-2-MePE orally to MeCP2 deficient mice as described in US 2009/0074865. Briefly, an aqueous solution, a water-in-oil emulsion (micro-emulsion, coarse emulsion or liquid crystal), or a gel composition containing a pharmaceutically effective amount of G-2-MePE (20 or 80 mg/kg per animal) is administered daily. In control MeCP2 deficient animals, we administer saline only, and wild-type animals are used to obtain baseline data similar to the design of studies described in Example 8 above.

fmr1 knockout mice [5] = assay: Open field test, fmr1 knockout mice; assay type: in vivo, mouse; details: 100 mg/kg i.p. 28 days
Experimental: 1. fmr1 KO+Vehicle (saline) 2. Wt+Vehicle (saline) 3. fmr1 KO+G-2-MePE (100 mg/kg in saline) 4. Wt+G-2-MePE (100 mg/kg in saline).
as §1
The open field is a grey PVC enclosed arena 50×30 cm divided into 10 cm squares. Mice were brought to the experimental room 5-20 min before testing. A mouse was placed into a corner square facing the corner and observed for 3 min. The number of squares entered (whole body) and rears (both front paws off the ground, but not as part of grooming) were counted. The latency to the first rearing (rear) was also noted. The movement of the mouse around the field was recorded with a video tracking device for 300 s (vNT4.0, Viewpoint). The latency for the mouse to enter the brightest, central part of the field total time spent in this central region, and total activity (in terms of path length in centimeters), were recorded in each trial, the initial exposure, 10 min after the initial exposure and 24 h after the initial exposure.
During exposure to the open field chamber mice habituated to the environment and thus explored less, decreasing the amount movement shown over time. Movement and rearing were recorded during the 3 exposures. Failures to reduce locomotion or rearing at 10 minutes and 24 hours indicated deficits in short and long term memory, respectively.

fmr1 knockout mice [6] = assay: Elevated plus maze, fmr1 knockout mice; assay type: in vivo, mouse
Experimental: G-2-MePE was administered at the dose of 100 mg/kg i.p. in 0.1 ml saline, once daily for 28 days. Vehicle-treated animals were injected with 0.1 ml saline daily for 28 days. Thereafter, drug or vehicle treatments were stopped and animals were tested on successive days until all tests were completed. Finally, the animals were sacrificed for determining expression of pAkt and pERK The Elevated Plus Maze (EPM) is a further test system for examining anxiety and locomotor activity. The EPM was built according to the description of Lister (Lister 1987). Briefly, the maze consisted of two open and two closed arms opposite each other in a plus shape, raised above floor height. The open arms were more exposed and therefore more anxiogenic. Wild-type mice therefore spent more time in the closed arms and visited them more. Mice were tested for 5 min and their behaviour was recorded. Measures taken included time spent in the arms and the center of the maze, and number of arm entries.

MeCP2 deficient mice [7] = assay: Seizure activity, electroencephalographic recordings (Example 12); details: mouse, in vivo
Excerpt: Electroencephalograpic recordings of wild-type mice and MeCP2 deficient mice treated with either saline or G-2-MePE are obtained using methods described in U.S. Pat. No. 7,714,020.

**Q.** With `C[C@@]1(C(=O)N[C@@H](CCC(=O)O)C(=O)O)CCCN1C(=O)CN` [Example G-2-MePE, Glycyl-L-2-methylprolyl-L-glutamic acid] (HELM PEPTIDE1{G.[C[C@@]1(C(=O)[*:2])CCCN1[*:1]].E}$$$$V2.0) as the molecule, how does the “heightened sniffing of the presented mouse” value (fmr1 knockout mice [1]; fmr1 KO) read?
**A.** nullified

**Q.** And the sniffing (fmr1 knockout mice [1]; wild-type group)?
**A.** no significant effect

**Q.** And the average soma size ([2]; KO animals)?
**A.** increases average soma size

**Q.** And the soma size ([2]; wild type animals)?
**A.** little or no effect

**Q.** And the “freezing behavior, contextual fear conditioning” value (fmr1 knockout mice [3])?
**A.** normalizes the deficit

**Q.** What about the survival (MeCP2 deficient mice [4]) of the same molecule?
**A.** survival is increased substantially

**Q.** And the rearing activity (fmr1 knockout mice [5]; fmr1 KO mice)?
**A.** significantly reduced rearing activity

**Q.** What about the “movement in the open field” value (fmr1 knockout mice [5]; fmr1 knockout mice, 2nd and 3rd trials) of the same molecule?
**A.** significantly reduce movement

**Q.** What about the rearing activity (fmr1 knockout mice [5]; wild-type mice) of the same molecule?
**A.** no effect

**Q.** What about the “percent open arm entries” value (fmr1 knockout mice [6]; 100 mg/kg i.p. 28 days) of the same molecule?
**A.** completely normalised

**Q.** What about the “time spent in the centre” value (fmr1 knockout mice [6]; 28-days treatment) of the same molecule?
**A.** normalised

**Q.** And the “motor seizures and non-convulsive seizures” value (MeCP2 deficient mice [7])?
**A.** effective in decreasing both motor seizures and non-convulsive seizures
